Where two headings read alike, the source gives them in different places.
Assays:
[1] = biological target: T1, recombinant human sialidase NEU3 (Homo sapiens, UniProt Q9UQ49); experiment: NEU3-catalyzed L-TGF-β1 activation (TGF-β1 release/concentration assay, active TGF-β1 ELISA); assay type: biochemical; settings: recombinant human NEU3, L-TGF-β1, PBS pH 6.9, 2 hours 37° C.
T1 construct: purchased Origene TP316537
T1 sequence (Q9UQ49 1-428): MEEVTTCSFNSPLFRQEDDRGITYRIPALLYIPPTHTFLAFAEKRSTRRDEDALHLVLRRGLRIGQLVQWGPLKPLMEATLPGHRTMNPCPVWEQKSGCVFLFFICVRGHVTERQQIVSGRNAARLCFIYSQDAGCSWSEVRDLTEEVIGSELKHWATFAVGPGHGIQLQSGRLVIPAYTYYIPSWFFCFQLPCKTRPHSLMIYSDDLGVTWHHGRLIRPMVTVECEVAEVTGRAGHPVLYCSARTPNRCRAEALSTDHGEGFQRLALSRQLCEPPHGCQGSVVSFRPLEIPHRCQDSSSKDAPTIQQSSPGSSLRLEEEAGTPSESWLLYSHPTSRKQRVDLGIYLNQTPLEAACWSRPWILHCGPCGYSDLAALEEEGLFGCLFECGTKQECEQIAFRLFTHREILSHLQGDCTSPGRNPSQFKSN
Method: To determine if NEU3 can cause latent transforming growth factor-β1 (L-TGF-β1) to release active TGF-β1, 200 ng/ml recombinant human L-TGF-β1 (299-LT/CF, R&D Systems) was incubated with varying concentrations of recombinant human NEU3 (TP316537, Origene) in a total volume of 100 μl of PBS pH 6.9 in a 96-well microplate (651261, Greiner Bio-one, Monroe, NC). The microplates were covered with aluminum foil and incubated at 37° C. for 2 hours. Following incubation, the reaction mixtures were assayed using a TGF-β1 ELISA kit (DY240, R&D Systems) following the manufacturer's protocol with the exception that the reaction mixtures were not processed for acid treatment, so as to measure only active TGF-β1 and not total TGF-β1. The absorbance was read with a SynergyMX plate reader (BioTek, Winooski, VT).
To determine the ability of compounds 1-31 to inhibit human recombinant NEU3 in-vitro, compounds were dissolved in 5 ml water to 20 mM in 15 ml tubes (89039-664, VWR, Radnor, PA), with the exception that 4-hydroxypyridine-2-carboxylic acid, nicotinic acid, and 4-aminopicolinic acid were dissolved in 50 μl DMSO to 2 M, and this was then added to 4.95 ml of water to make a 20 mM stock, and O-(tetrahydro-2H-pyran-2yl) hydroxylamine and salicylic acid were dissolved in 50 μl methanol to 2 M, and this was then added to 4.95 ml of water to make a 20 mM stock. All stocks were stored at 4° C. and used within 2 weeks of preparation. A 10-fold dilution series of the compounds starting at 2 mM were made in PBS pH 6.9 in 1.7 ml clear microtubes (22-281, Genesee Scientific). 100 μl of diluted compound was added to the well of a 96 well plate and then 50 μl of 400 ng/ml recombinant human sialidase NEU3 (TP316537, Origene) in PBS pH 6.9 was added to each well (50 μl PBS pH 6.9 for the control), and the plate was incubated for 30 minutes at 37° C. 50 μl of 800 ng/ml L-TGF-β1 (299-LT/CF, R&D Systems) in PBS pH 6.9 was then added to the well. The plate was covered with aluminum foil and incubated for 2 hours at 37° C., and released active TGF-β1 was assayed as described above.

[2] = test system: NEU3-induced IL-6 production by human PBMC; experiment: NEU3-induced extracellular IL-6 accumulation by human PBMC (IL-6 concentration assay); assay type: cell-based; settings: NEU3, serum-free medium, 48 hours
Method: Human peripheral blood was collected from healthy volunteers who gave written consent and with specific approval from the Texas A&M University human subjects review board. Peripheral blood mononuclear cells (PBMC) were isolated from the blood using Ficoll-Paque density gradient centrifugation (95021-205, GE Healthcare, Cincinnati, OH) following the manufacture's protocol. PBMC were cultured at […] in 96-well flat bottom tissue culture plates (type 62406-081; […] Louis, MO)) in a final volume of 200 μl per well. […] The sialidases were diluted in 100 μl of the same medium the cells were in, and added to 100 μl of cells at 1×10^5 cells/ml to make the total volume in a well 200 μl with 1×10^4 cells/well. The cells were then incubated at 37° C. in a humidified incubator with 5% CO2. The culture supernatants were collected after two or five days and assayed using an IL-6 ELISA kit (430501, Biolegend, San Diego, CA) following the manufacturer's protocol, reading absorbance with a SynergyMX plate reader (BioTek, Winooski, VT). Statistics were analyzed using Prism software (Graphpad, La Jolla, CA). At least three different donors were used for each assay. […] IL-6 in the culture supernatant was then assayed as described above. At least three different donors were used for each assay.

[3] = read-out: IC50, inhibits human NEU3 in the TGF-β1 concentration assay
[4] = read-out: IC50, inhibits human NEU3 in the TGF-β1 concentration (release) assay

| IC50 [1, 3] | IC50 [1, 4] | Structure (SMILES) | IC50 [2] |
| --- | --- | --- | --- |
| 2 nM | – | NC1CCNC(C(=O)O)C1 (stereo not shown) [Compound 25, 2-piperidinecarboxylic acid, 4-amino] | 0.13 nM |
| – | 500 nM | CN1CCCCC1C(=O)O (stereo not shown) [Compound 20, 1-methyl-2-piperidine carboxylic acid] | 30 nM |
| 0.011 nM | – | O=C(O)c1cccnc1 [Compound 14, nicotinic acid] | 1500 nM |
| – | 120000 nM | O=C(O)C1=CCCCN1 [Compound 12, sodium 1,4,5,6-tetrahydropyridine-2-carboxylate] | – |
| 0.49 nM | – | O=C(O)[C@@H]1CCCCN1 [Compound 13, L-pipecolinic acid] | 7900 nM |
| – | 130 nM | Cc1ccnc(C(=O)O)c1 [Compound 22, 4-methylpicolinic acid] | 4700 nM |
| – | 2600 nM | NOC1CCCCO1 (stereo not shown) [Compound 16, O-(tetrahydro-2H-pyran-2-yl)-hydroxylamine] | – |
| 2.4 nM | – | O=C(O)C1CCCCCN1 (stereo not shown) [Compound 31, azepane-2-carboxylic acid] | 35 nM |
| < 0.01 nM | – | Cc1cccc(C(=O)O)n1 [Compound 27, 6-methyl-2-pyridinecarboxylic acid] | 4.1 nM |
| 63 nM | – | O=C(O)[C@H]1CCCN1 [Compound 29, D-proline] | 4200 nM |

The next lines start with the compound.

| Structure (SMILES) | IC50 [1, 3] | IC50 [1, 4] | IC50 [2] |
| --- | --- | --- | --- |
| Nc1ccnc(C(=O)O)c1 [Compound 7, 4-amino picolinic acid] | 4 nM | – | > 100000 nM |
| O=C(O)c1cc(C(F)(F)F)ccn1 [Compound 21, 4-(trifluoromethyl) picolinic acid] | – | – | 0.08 nM |
| O=C(O)c1cc(O)ccn1 [Compound 2, 4-hydroxypyridine-2-carboxylic acid] | – | – | > 300000 nM |
| Nc1ccncc1C(=O)O [Compound 23, 4-aminonicotinic acid] | 5 nM | – | 10000 nM |
| O=C(O)c1cccc(CO)n1 [Compound 17, 6-(hydroxymethyl) picolinic acid] | 0.05 nM | – | 38 nM |
| O=[N+]([O-])c1ccccn1 [Compound 19, 2-Nitropyridine] | 40 nM | – | 20 nM |
| O=C(O)c1ccc[nH]1 [Compound 30, pyrrole-2-carboxylic acid] | – | 164000 nM | 9500 nM |
| O=C(O)c1ccccn1 [Compound 4, picolinic acid] | < 0.01 nM | – | > 100000 nM |
| O=C(O)c1ccc([N+](=O)[O-])cn1 [Compound 8, 5-nitro picolinic acid] | 43 nM | – | 79 nM |
| O=C(O)c1ccccc1O [Compound 15, salicylic acid] | – | 1800 nM | – |
| O=C(O)c1cc(=O)cc[nH]1 [Compound 24, 4-oxo-1,4-dihydropyridine-2-carboxylic acid] | – | – | 8500 nM |
| COc1ccnc(C(=O)O)c1 [Compound 9, 4-methoxy picolinic acid] | 3.2 nM | – | > 100000 nM |
| CCOC(=O)C1=C[C@@H](OC(CC)CC)[C@H](NC(C)=O)[C@@H](N)C1 [Compound 28, oseltamivir, reference compound] | 570 nM | – | 47000 nM |
| CC(=O)Nc1ccc(C(=O)O)nc1 [Compound 3, 5-acetamidopyridine-2-carboxylic acid] | 11 nM | – | 6200 nM |
| Nc1ccc(C(=O)O)nc1 [Compound 18, 5-aminopyridine-2-carboxylic acid] | 40 nM | – | 140 nM |
| NC(=O)c1ccccn1 [Compound 10, picolinamide] | 22 nM | – | > 100000 nM |

Source: patent US12616674B2, “Anti-fibrotic NEU3 inhibitor compounds and methods of use” (The Texas A&M University System, priority 2019, dated 2026)
